Columns and labels:
Type in all cases: nucleic-acid assay
[1] = tested on: Nucleic Acid; assay: Induction of DNA cleavage activity in Escherichia coli pBR322 assessed as supercoiled circular form after 10 mins by gel electrophoresis in presence of UV light; design: concentration or dose not given beside the values
[2] = tested on: Nucleic Acid; assay: Induction of DNA cleavage activity in Escherichia coli pBR322 assessed as relaxed circular form after 10 mins by gel electrophoresis in presence of UV light; design: concentration or dose not given beside the values
[3] = tested on: Nucleic Acid; assay: Ratio of relaxed circular form of Escherichia coli pBR322 to supercoiled circular form of Escherichia coli pBR322 in presence of bubbling with argon gas
[4] = tested on: Nucleic Acid; assay: Ratio of relaxed circular form of Escherichia coli pBR322 to supercoiled circular form of Escherichia coli pBR322 in presence of 0.1 M NaN3 solution
[5] = tested on: Nucleic Acid; assay: Induction of DNA cleavage activity in Escherichia coli pBR322 assessed as supercoiled circular form after 10 mins by gel electrophoresis in absence of UV light
[6] = tested on: Nucleic Acid; assay: Induction of DNA cleavage activity in Escherichia coli pBR322 assessed as relaxed circular form after 10 mins by gel electrophoresis in absence of UV light; design: scale not given: the % may be the effect or the level left
[7] = tested on: Nucleic Acid; assay: Induction of DNA cleavage activity in Escherichia coli pBR322 assessed as supercoiled circular form after 10 mins by gel electrophoresis in presence of ascorbic acid
[8] = tested on: Nucleic Acid; assay: Induction of DNA cleavage activity in Escherichia coli pBR322 assessed as relaxed circular form after 10 mins by gel electrophoresis in presence of ascorbic acid; design: scale not given: the % may be the effect or the level left
[9] = tested on: Nucleic Acid; assay: Induction of DNA cleavage activity in Escherichia coli pBR322 assessed as supercoiled circular form after 10 mins by gel electrophoresis in presence of 0.1 M NaN3 solution
[10] = tested on: Nucleic Acid; assay: Induction of DNA cleavage activity in Escherichia coli pBR322 assessed as relaxed circular form after 10 mins by gel electrophoresis in presence of 0.1 M NaN3 solution; design: scale not given: the % may be the effect or the level left
[11] = tested on: Nucleic Acid; assay: Induction of DNA cleavage activity in Escherichia coli pBR322 assessed as supercoiled circular form after 10 mins by gel electrophoresis in presence of bubbling with argon gas
[12] = tested on: Nucleic Acid; assay: Induction of DNA cleavage activity in Escherichia coli pBR322 assessed as relaxed circular form after 10 mins by gel electrophoresis in presence of bubbling with argon gas; design: scale not given: the % may be the effect or the level left
[13] = tested on: Nucleic Acid; assay: Ratio of relaxed circular form of Escherichia coli pBR322 to supercoiled circular form of Escherichia coli pBR322 in absence of UV light
[14] = tested on: Nucleic Acid; assay: Ratio of relaxed circular form of Escherichia coli pBR322 to supercoiled circular form of Escherichia coli pBR322 in presence of ascorbic acid

Activity [1] [%] | Activity [2] [%] | Compound | also measured
59.2 | 40.8 | O=C(ON(C(=O)c1ccc(F)cc1)c1ccc(C(=O)c2ccccc2)cc1)c1ccccc1 | 
37.1 | 62.9 | O=C(ON(C(=O)c1ccccc1)c1ccc(C(=O)c2ccccc2)cc1)c1ccc(F)cc1 | 
11.2 | 88.8 | COc1ccc(C(=O)ON(C(=O)c2ccccc2)c2ccc(C(=O)c3ccccc3)cc2)cc1OC | 
25.6 | 73.9 | CC(=O)ON(C(=O)c1ccccc1)c1ccc(C(=O)c2ccccc2)cc1 | Ratio [3]: 2.79; Ratio [4]: 3.18; Activity [5]: 83.7%; Activity [6]: 16.3%; Activity [7]: 76.6%; Activity [8]: 23.4%; Activity [9]: 24.1%; Activity [10]: 76%; Activity [11]: 26.1%; Activity [12]: 73%; Ratio [13]: 0.19; Ratio [14]: 0.31
7.83 | 92.2 | CC(=O)N(OC(=O)c1ccccc1)c1ccc(C(=O)c2ccccc2)cc1 | 
22.9 | 77.1 | COc1ccc(C(=O)N(OC(=O)c2ccccc2)c2ccc(C(=O)c3ccccc3)cc2)cc1OC | 

More lines, now with the values behind:

Compound | Activity [1] [%] | Activity [2] [%] | also measured
O=C(ON(C(=O)c1ccccc1)c1ccc(C(=O)c2ccccc2)cc1)c1ccc([N+](=O)[O-])cc1 | 56.6 | 43.4 | 
O=C(ON(C(=O)c1ccccc1)c1ccc(C(=O)c2ccccc2)cc1)c1ccccc1 | 13.2 | 86.8 | 
O=C(ON(C(=O)c1ccccc1)c1ccc(C(=O)c2ccccc2)cc1)c1ccc(Cl)cc1 | 65 | 35 | 
O=C(ON(C(=O)c1ccc([N+](=O)[O-])cc1)c1ccc(C(=O)c2ccccc2)cc1)c1ccccc1 | 63.7 | 36.3 | 

Source: ChEMBL document CHEMBL1221382, “N,O-diacyl-4-benzoyl-N-phenylhydroxylamines as photoinduced DNA cleaving agents” (Bioorg Med Chem Lett, 2010)
